Calls of active or inactive are those of the source. The calls are words filed in the database; no cut-off is given here.
Assays:
[1] = biological target: Tyrosine-protein kinase JAK2 (Homo sapiens) (UniProt O60674); assay: Inhibition of JAK2 (unknown origin) at 100 nM preincubated for 10 mins followed by substrate addition and measured after 60 mins in presence of ATP by ADP-Glo reagent based assay relative to control; conditions: time 70.0 min
A549 = assay: Antiproliferative activity against human A549 cells incubated for 72 hrs by MTT assay; type: functional, cell-based; conditions: A549, 72 h
[2] = biological target: CDK1/Cyclin A (Homo sapiens) (UniProt P06493+P20248); assay: Inhibition of CDK1/Cyclin A2 (unknown origin) at 200 nM preincubated for 10 mins followed by substrate addition and measured after 60 mins in presence of ATP by ADP-Glo reagent based assay relative to control; type: protein-complex assay; conditions: time 70.0 min
Sequence of CDK1/Cyclin A (Homo sapiens) (P06493 whole entry, looked up): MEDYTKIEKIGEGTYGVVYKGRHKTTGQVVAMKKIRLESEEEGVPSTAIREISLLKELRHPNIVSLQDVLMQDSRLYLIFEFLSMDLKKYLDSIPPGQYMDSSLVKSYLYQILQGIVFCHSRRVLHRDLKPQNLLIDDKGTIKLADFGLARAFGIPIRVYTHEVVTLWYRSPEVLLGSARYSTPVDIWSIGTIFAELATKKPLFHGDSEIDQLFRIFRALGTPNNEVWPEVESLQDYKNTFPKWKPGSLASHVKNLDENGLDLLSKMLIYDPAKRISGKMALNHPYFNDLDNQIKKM
Sequence of CDK1/Cyclin A (Homo sapiens) (P20248 whole entry, looked up): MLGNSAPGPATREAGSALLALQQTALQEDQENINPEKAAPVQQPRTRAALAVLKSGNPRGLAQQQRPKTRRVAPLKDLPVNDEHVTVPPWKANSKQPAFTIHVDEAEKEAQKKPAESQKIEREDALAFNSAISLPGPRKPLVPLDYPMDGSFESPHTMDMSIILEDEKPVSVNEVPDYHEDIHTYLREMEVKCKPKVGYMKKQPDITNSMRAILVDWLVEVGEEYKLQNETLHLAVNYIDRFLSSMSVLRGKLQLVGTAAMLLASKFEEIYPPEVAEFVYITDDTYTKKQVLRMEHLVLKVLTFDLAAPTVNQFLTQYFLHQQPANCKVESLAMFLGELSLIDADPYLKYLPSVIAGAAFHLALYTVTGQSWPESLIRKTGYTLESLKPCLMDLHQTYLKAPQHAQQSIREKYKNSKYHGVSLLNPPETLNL

[3] = biological target: Cyclin-dependent kinase 1/cyclin B1 (Homo sapiens) (UniProt P06493+P14635); assay: Inhibition of CDK1/Cyclin B1 (unknown origin) at 200 nM preincubated for 10 mins followed by substrate addition and measured after 60 mins in presence of ATP by ADP-Glo reagent based assay relative to control; type: protein-complex assay; conditions: time 70.0 min
Sequence of Cyclin-dependent kinase 1/cyclin B1 (Homo sapiens) (P06493 whole entry, looked up): as the sequence (P06493 whole entry, looked up) above
Sequence of Cyclin-dependent kinase 1/cyclin B1 (Homo sapiens) (P14635 whole entry, looked up): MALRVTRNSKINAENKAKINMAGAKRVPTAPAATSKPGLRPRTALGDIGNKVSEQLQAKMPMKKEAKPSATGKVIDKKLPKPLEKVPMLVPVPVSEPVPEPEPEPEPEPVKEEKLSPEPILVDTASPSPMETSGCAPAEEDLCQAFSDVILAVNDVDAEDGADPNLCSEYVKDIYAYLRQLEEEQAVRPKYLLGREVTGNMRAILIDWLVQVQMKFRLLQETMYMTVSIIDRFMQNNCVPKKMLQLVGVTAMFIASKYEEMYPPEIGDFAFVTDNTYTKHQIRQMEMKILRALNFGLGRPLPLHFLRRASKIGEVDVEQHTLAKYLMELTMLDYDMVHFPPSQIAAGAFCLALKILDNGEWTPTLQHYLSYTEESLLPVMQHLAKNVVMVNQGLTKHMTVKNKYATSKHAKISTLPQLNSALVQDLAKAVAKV

[4] = biological target: CDK1/Cyclin E (Homo sapiens) (UniProt P06493+P24864); assay: Inhibition of CDK1/Cyclin E1 (unknown origin) at 200 nM preincubated for 10 mins followed by substrate addition and measured after 60 mins in presence of ATP by ADP-Glo reagent based assay relative to control; type: protein-complex assay; conditions: time 70.0 min
Sequence of CDK1/Cyclin E (Homo sapiens) (P06493 whole entry, looked up): as the sequence (P06493 whole entry, looked up) above
Sequence of CDK1/Cyclin E (Homo sapiens) (P24864 whole entry, looked up): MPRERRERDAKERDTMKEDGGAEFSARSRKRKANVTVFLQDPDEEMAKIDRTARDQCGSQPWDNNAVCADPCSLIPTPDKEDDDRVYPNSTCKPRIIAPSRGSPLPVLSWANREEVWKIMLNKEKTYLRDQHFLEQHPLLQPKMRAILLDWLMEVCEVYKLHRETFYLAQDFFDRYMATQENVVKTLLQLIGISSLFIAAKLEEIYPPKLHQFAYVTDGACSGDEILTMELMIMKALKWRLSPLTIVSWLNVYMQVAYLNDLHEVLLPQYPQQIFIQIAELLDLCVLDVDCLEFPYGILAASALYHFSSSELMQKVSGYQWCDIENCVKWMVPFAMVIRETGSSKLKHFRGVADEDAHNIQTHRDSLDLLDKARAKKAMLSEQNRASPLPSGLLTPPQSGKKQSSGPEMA

[5] = biological target: CDK4/Cyclin D3 (Homo sapiens) (UniProt P11802+P30281); assay: Inhibition of CDK4/Cyclin D3 (unknown origin) at 200 nM preincubated for 10 mins followed by substrate addition and measured after 60 mins in presence of ATP by ADP-Glo reagent based assay relative to control; type: protein-complex assay; conditions: time 70.0 min
[6] = biological target: Cyclin-Y/Cyclin-dependent kinase 16 (Homo sapiens) (UniProt Q00536+Q8ND76); assay: Inhibition of CDK16/cyclin Y (unknown origin) at 200 nM preincubated for 10 mins followed by substrate addition and measured after 60 mins in presence of ATP by ADP-Glo reagent based assay relative to control; type: protein-complex assay; conditions: time 70.0 min
[7] = biological target: CDK18/Cyclin Y (Homo sapiens) (UniProt Q07002+Q8ND76); assay: Inhibition of CDK18/cyclin Y (unknown origin) at 200 nM preincubated for 10 mins followed by substrate addition and measured after 60 mins in presence of ATP by ADP-Glo reagent based assay relative to control; type: protein-complex assay; conditions: time 70.0 min
[8] = biological target: Cyclin-C/Cyclin-dependent kinase 19 (Homo sapiens) (UniProt Q9BWU1+P24863); assay: Inhibition of CDK19/cyclin C (unknown origin) at 200 nM preincubated for 10 mins followed by substrate addition and measured after 60 mins in presence of ATP by ADP-Glo reagent based assay relative to control; type: protein-complex assay; conditions: time 70.0 min
[9] = biological target: Dual specificity protein kinase CLK3 (Homo sapiens) (UniProt P49761); assay: Inhibition of CLK3 (unknown origin) at 100 nM preincubated for 10 mins followed by substrate addition and measured after 60 mins in presence of ATP by ADP-Glo reagent based assay relative to control; conditions: time 70.0 min
Sequence of Dual specificity protein kinase CLK3 (Homo sapiens) (P49761 whole entry, looked up): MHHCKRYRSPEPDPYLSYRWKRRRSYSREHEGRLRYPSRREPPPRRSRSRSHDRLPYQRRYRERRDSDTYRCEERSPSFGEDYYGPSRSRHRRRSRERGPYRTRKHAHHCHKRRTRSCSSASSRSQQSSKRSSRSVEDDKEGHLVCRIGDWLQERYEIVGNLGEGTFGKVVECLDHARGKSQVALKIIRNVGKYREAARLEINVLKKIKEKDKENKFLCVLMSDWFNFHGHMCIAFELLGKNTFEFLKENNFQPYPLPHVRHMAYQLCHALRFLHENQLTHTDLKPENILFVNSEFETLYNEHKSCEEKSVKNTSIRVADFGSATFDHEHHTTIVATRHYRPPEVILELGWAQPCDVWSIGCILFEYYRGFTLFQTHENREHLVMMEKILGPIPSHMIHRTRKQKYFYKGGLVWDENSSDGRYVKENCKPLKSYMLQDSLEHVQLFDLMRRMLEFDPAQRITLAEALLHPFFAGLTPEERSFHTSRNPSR

NCI-H596 = assay: Antiproliferative activity against human NCI-H596 cells incubated for 72 hrs by MTT assay; type: functional, cell-based; conditions: NCI-H596, 72 h
[10] = biological target: Homeodomain-interacting protein kinase 1 (Homo sapiens) (UniProt Q86Z02); assay: Inhibition of HIPK1 (unknown origin) at 500 nM preincubated for 10 mins followed by substrate addition and measured after 60 mins in presence of ATP by ADP-Glo reagent based assay relative to control; conditions: time 70.0 min
Sequence of Homeodomain-interacting protein kinase 1 (Homo sapiens) (Q86Z02 whole entry, looked up): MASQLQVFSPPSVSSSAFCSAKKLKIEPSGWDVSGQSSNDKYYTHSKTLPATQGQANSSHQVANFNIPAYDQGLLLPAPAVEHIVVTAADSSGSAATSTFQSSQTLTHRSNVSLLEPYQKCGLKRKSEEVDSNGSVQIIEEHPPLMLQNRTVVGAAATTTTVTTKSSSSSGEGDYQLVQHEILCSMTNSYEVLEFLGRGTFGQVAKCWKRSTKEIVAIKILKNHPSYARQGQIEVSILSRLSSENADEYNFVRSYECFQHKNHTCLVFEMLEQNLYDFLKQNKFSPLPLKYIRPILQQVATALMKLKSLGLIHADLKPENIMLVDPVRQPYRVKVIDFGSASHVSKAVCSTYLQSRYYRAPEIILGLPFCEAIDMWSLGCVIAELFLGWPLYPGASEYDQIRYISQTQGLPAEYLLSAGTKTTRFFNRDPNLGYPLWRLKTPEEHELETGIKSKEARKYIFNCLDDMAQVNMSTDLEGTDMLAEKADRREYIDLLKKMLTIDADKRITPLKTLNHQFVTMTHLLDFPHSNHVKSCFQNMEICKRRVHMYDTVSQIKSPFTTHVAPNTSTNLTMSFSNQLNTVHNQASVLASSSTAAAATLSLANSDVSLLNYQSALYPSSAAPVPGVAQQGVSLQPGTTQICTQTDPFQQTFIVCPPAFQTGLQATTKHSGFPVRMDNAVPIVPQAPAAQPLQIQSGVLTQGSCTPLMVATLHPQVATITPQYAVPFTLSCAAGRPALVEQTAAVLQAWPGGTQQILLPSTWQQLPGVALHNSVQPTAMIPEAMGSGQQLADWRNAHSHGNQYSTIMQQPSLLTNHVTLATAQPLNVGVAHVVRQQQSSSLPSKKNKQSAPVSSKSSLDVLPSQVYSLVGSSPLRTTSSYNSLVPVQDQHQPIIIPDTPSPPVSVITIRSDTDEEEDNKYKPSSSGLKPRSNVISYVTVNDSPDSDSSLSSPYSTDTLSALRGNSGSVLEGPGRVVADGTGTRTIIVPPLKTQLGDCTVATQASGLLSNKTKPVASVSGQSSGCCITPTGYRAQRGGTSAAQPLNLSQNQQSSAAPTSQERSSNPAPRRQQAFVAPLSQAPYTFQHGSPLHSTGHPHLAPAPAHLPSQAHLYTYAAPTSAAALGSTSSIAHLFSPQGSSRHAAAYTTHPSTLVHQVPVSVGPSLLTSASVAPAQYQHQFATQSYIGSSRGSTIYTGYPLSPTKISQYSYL

NCI-H1975 [11] = assay: Downregulation of Mcl-1 level in human Osimertinib-resistant NCI-H1975 cell at 500 nM measured after 8 hrs by Western blotting analysis; type: functional, cell-based
NCI-H1975 [12] = assay: Downregulation of Mcl-1 level in human Osimertinib-resistant NCI-H1975 cell at 500 nM by Western blotting analysis; type: functional, cell-based; conditions: time 2-12 hrs, TDE = time-dependent effect
NCI-H1975 [13] = assay: Downregulation of Mcl-1 level in human Osimertinib-resistant NCI-H1975 cell at 500 nM measured after 2 hrs by Western blotting analysis; type: functional, cell-based
[14] = Antiproliferative activity against human Osimertinib-resistant NCI-H1975 cell assessed as cell growth inhibition incubated for 72 hrs in presence of osimertinib by MTT assay; type: functional, cell-based; conditions: NCI-H1975, 72 h
NCI-H1975 [15] = assay: Downregulation of cleaved caspase-3 level in human Osimertinib-resistant NCI-H1975 cell at 125 nM measured after 16 hrs in presence of osimertinib by Western blot analysis; type: functional, cell-based
[16] = Induction of apoptosis in human Osimertinib-resistant NCI-H1975 cell assessed as viable cells at 500 nM measured after 16 hrs by Annexin V-FITC and PI staining based analysis (reference value: 94.9%); type: functional; conditions: read-out: Activity
[17] = Induction of apoptosis in human Osimertinib-resistant NCI-H1975 cell assessed as early apoptotic cells at 500 nM measured after 16 hrs by Annexin V-FITC and PI staining based analysis (reference value: 1.78%); type: functional
[18] = Induction of apoptosis in human Osimertinib-resistant NCI-H1975 cell assessed as late apoptotic cells at 2000 nM measured after 16 hrs by Annexin V-FITC and PI staining based analysis (reference value: 2.84%); type: functional
[19] = Induction of apoptosis in human Osimertinib-resistant NCI-H1975 cell assessed as necrotic cells at 125 nM measured after 16 hrs by Annexin V-FITC and PI staining based analysis (reference value: 0.50%); type: functional
[20] = Induction of apoptosis in human Osimertinib-resistant NCI-H1975 cell assessed as late apoptotic cells at 125 nM measured after 16 hrs in presence of osimertinib by Annexin V-FITC and PI staining based analysis (Rvb =2.84%); type: functional
[21] = Toxicity in ICR mouse assessed as effect on body weight loss at 100 mg/kg, iv measured for 8 to 9 days; type: organism-based; conditions: in vivo, time 8-9 day
[22] = Toxicity in ICR mouse assessed as effect on body weight loss at 1000 mg/kg, po measured for 8 to 9 days; type: organism-based; conditions: in vivo, time 8-9 day
[23] = Toxicity in ICR mouse assessed as morphological changes in heart at 1000 mg/kg, po measured after 9 days by H and E staining based analysis; type: organism-based; conditions: in vivo, 216 h, time 9 day
[24] = Toxicity in ICR mouse assessed as morphological changes in spleen at 1000 mg/kg, po measured after 9 days by H and E staining based analysis; type: organism-based; conditions: in vivo, 216 h, time 9 day
[25] = Toxicity in ICR mouse assessed as abnormalities in spleen at 1000 mg/kg, po measured after 9 days by H and E staining based analysis; type: organism-based; conditions: in vivo, 216 h, time 9 day
[26] = Toxicity in ICR mouse assessed as abnormalities in kidney at 1000 mg/kg, po measured after 9 days by H and E staining based analysis; type: organism-based; conditions: in vivo, 216 h, time 9 day
[27] = Antiproliferative activity against 3D-cultured human Osimertinib-resistant NCI-H1975 cell incubated for 72 hrs by MTT assay; type: functional, cell-based; conditions: NCI-H1975, 72 h
[28] = Antitumor activity against patient derived #0085 lung cancer organoid assessed as inhibition of growth measured after 4 days; type: functional, tissue-based; conditions: Homo sapiens, 96 h
[29] = Antitumor activity against patient derived #2422 lung cancer organoid assessed as inhibition of growth measured after 4 days; type: functional, tissue-based; conditions: Homo sapiens, 96 h

Sequence of Tyrosine-protein kinase JAK2 (Homo sapiens) (O60674 whole entry): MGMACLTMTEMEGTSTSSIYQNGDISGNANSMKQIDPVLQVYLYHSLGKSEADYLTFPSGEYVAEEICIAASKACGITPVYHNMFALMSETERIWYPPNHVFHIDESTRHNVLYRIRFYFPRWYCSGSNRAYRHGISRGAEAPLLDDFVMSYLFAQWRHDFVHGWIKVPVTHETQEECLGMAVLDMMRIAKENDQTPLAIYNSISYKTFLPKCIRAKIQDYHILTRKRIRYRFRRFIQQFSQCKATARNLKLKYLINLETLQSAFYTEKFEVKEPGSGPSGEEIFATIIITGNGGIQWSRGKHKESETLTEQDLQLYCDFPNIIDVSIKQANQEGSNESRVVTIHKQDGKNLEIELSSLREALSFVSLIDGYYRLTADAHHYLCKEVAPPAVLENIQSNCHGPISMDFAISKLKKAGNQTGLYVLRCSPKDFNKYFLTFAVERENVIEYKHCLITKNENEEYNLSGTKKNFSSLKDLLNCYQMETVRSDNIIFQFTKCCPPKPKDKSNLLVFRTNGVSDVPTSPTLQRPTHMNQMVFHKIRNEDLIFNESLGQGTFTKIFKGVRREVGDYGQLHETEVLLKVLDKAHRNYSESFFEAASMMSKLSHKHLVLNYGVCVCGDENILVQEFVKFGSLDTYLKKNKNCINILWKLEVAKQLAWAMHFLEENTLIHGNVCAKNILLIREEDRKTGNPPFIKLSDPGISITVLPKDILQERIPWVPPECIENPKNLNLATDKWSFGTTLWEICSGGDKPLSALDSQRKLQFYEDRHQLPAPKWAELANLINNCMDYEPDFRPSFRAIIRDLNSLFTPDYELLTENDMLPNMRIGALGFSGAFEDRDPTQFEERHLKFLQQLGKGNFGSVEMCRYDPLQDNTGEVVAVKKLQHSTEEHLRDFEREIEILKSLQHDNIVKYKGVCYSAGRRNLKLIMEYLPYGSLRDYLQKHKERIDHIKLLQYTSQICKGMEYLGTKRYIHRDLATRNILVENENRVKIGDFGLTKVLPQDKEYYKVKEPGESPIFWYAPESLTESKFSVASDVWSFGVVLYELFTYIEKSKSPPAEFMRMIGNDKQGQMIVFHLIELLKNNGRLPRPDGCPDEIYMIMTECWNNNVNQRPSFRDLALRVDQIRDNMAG

O=C(NCCN1CCOCC1)c1ccc2cc1OCCCCCCOc1cc(ccc1F)-c1nc(ncc1F)N2
inhibition [1]: 23.3% | IC50 (A549): 409 nM | inhibition [2]: 15.7% | inhibition [3]: 33% | inhibition [4]: 16.4% | inhibition [5]: 50.1% | inhibition [6]: 25.9% | inhibition [7]: 12% | inhibition [8]: 11.5% | inhibition [9]: 5.7% | IC50 (NCI-H596): 332 nM | inhibition [10]: 96% | Activity (NCI-H1975 [11]): Active | Activity (NCI-H1975 [12]): Tde | Activity (NCI-H1975 [13]): Active | IC50 [14]: 83 nM | Activity (NCI-H1975 [15]): Active | viability at 0.5 µM [16]: 75.6% | Activity [17]: 14.4% | Activity [18]: 13.7% | Activity [19]: 3.25% | Activity [20]: 18.2% | Activity [21]: Non-Toxic | Activity [22]: Non-Toxic | Activity [23]: Non-Toxic | Activity [24]: Non-Toxic | Activity [25]: Non-Toxic | Activity [26]: Non-Toxic | IC50 [27]: < 50 nM | IC50 [28]: 130 nM | IC50 [29]: < 80 nM
